Data taken from patent publication US20200390100A1, “SUBSTITUTED N-HETEROCYCLYL- AND N-HETEROARYL-TETRAHYDROPYRIMIDINONES AND THE SALTS THEREOF, AND THE USE OF SAME AS HERBICIDAL ACTIVE SUBSTANCES” (Bayer Aktiengesellschaft, priority 2017, published 2020).

Tests used:
photosystem II (PS II) = molecular target: T1, photosystem II (PS II) (Spinacia oleracea, UniProt P69560); test: Measurement of PS II activity in thylakoid membranes (DCPIP reduction); format: biochemical, spinach; conditions: PS II activity in spinach thylakoid membranes, Table E1; read-out: Effect
T1 construct: the chloroplasts were osmotically ruptured and the thylakoid membranes were then obtained by centrifugation; from tissue; host or cells: fresh spinach leaves; thylakoid membrane preparation from isolated chloroplasts
Protocol: Cooled fresh spinach leaves were comminuted and homogenized in 50 mM phosphate buffer, pH 6.8. 10 mM KCl, 0.34 M sucrose (sucrose buffer) (blender, 1 g of plant material/ml). The homogenate was subsequently filtered through 4 layers of Miracloth and the chloroplasts were isolated by centrifugation, i.e. 10 min of centrifugation at 4400×g (4° C.). The sediment was suspended in 25 ml of sucrose buffer and re-centrifuged for 10 min at 4400×g (4° C.). The sediment was then suspended in 40 ml of 50 mM phosphate buffer, pH 6.8, 10 mM KCl, without sucrose. In this step, the chloroplasts were osmotically ruptured and the thylakoid membranes were then obtained by centrifugation (10 min, 4400×g, 4° C.). The membrane sediment was finally suspended in about 20 ml of 50 mM phosphate buffer, pH 6.8, 10 mM KCl. Following protein determination and activity determination, the membrane suspension was divided into aliquots and frozen in liquid nitrogen. The aliquots were stored at −80° C. Under these conditions, the photosystem II preparation was storage stable for at least three months. The activity determination of photosystem II (PS II) was then carried out using the following test principle: The electron transfer from PS II to an artificial electron acceptor, 2,6-dichlorophenolindophenol (DCPIP), was measured with exposure to light. The concentration of the blue oxidized form of DCPIP was determined spectrophotometrically at wavelength λ=595 nm. […] The activity determination is carried out in microtiter plates (96 cavities) in a reaction volume of 200 μl. Here, 155 μl of dilute membrane suspension were initially charged in 50 mM of phosphate buffer, pH 6.8, 10 mM KCl. Depending on the activity of the PS II preparation, the dilution was adjusted such that the measurement of the decrease in absorption (λ=595 nm) was linear for at least 10 min. In each case 5 μl solutions of the test compounds of a concentration of 100 μM in DMSO were added to the enzyme suspension; controls contained 5 μl of DMSO; the final concentration of DMSO in the reaction batch was thus 2.5% (v/v); this concentration had no adverse effect on the enzymatic activity. On each microtiter plate, a known PS II inhibitor, for example metribuzin, was used as standard, which allowed the quality of the PS II test to be assessed. The reaction was started by addition of 40 μl DCPIP solution (600 μM in distilled water); the final concentration of DCPIP was 120 μM. Measurement of absorption is carried out over a period of 10 min at 22° C. and with exposure to light. Using metribuzin as comparative substance, the results for the efficacy of the compounds of the general formula (I) at 100 μM are stated in the table below using the following classification: ++++(inhibition≥90%), +++(90%>inhibition≥70%), ++(70%>inhibition≥50%), +(50%>inhibition≥30%).

Setaria viridis [1] = test: Pre-emergence herbicidal action, greenhouse, 320 g/ha; format: in vivo; conditions: application rate 320 g/ha, Table B11
Summary of the method: (§1)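 Seeds were sown in pots and covered with soil. WP or EC formulations were sprayed onto the soil surface as aqueous suspension or emulsion with 0.5% additive. Damage was scored visually after about 3 weeks as % activity against untreated controls (100% = plants dead, 0% = like control).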

Hordeum murinum = test: as above; format: in vivo; conditions: application rate 320 g/ha, Table B14
Summary of the method: as §1

Viola tricolor = test: as above; format: in vivo; conditions: application rate 320 g/ha, Table B8
Summary of the method: as §1

Stellaria media [2] = test: as above; format: in vivo; conditions: application rate 320 g/ha, scored visually after about 3 weeks vs untreated controls
Summary of the method: as §1

Echinochloa crus-galli [3] = test: as above; format: in vivo; conditions: application rate 320 g/ha, scored visually after about 3 weeks vs untreated controls
Summary of the method: as §1

Avena fatua = test: as above; format: in vivo; conditions: application rate 320 g/ha, scored visually after about 3 weeks vs untreated controls
Summary of the method: as §1

Matricaria inodora [4] = test: as above; format: in vivo; conditions: application rate 320 g/ha, scored visually after about 3 weeks vs untreated controls
Summary of the method: as §1

Amaranthus retroflexus [5] = test: as above; format: in vivo; conditions: application rate 320 g/ha, scored visually after about 3 weeks vs untreated controls
Summary of the method: as §1

Polygonum convolvulus = test: as above; format: in vivo; conditions: application rate 320 g/ha, scored visually after about 3 weeks vs untreated controls
Summary of the method: as §1

Abutilon theophrasti [6] = test: as above; format: in vivo; conditions: application rate 320 g/ha, scored visually after about 3 weeks vs untreated controls
Summary of the method: as §1

Pharbitis purpurea [7] = test: as above; format: in vivo; conditions: application rate 320 g/ha, Table B12
Summary of the method: as §1

Alopecurus myosuroides = test: as above; format: in vivo; conditions: application rate 320 g/ha, scored visually after about 3 weeks vs untreated controls
Summary of the method: as §1

Lolium rigidum = test: Herbicidal pre-emergence action (Part 2), 1280 g/ha; format: in vivo; conditions: application rate 1280 g/ha, scored visually after about 3 weeks, Table D2
Summary of the method: (§2)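 Weed seeds were sown in sandy loam and covered with soil, then compound formulated as WP or EC was sprayed onto the covering soil as aqueous suspension/emulsion with 0.5% additive at 600 L/ha water. Pots were kept in a greenhouse; activity was scored visually versus untreated controls after about 3 weeks (0–100%).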

Stellaria media [8] = test: as above; format: in vivo; conditions: application rate 1280 g/ha, scored visually after about 3 weeks, Table D8
Summary of the method: as §2

Matricaria inodora [9] = test: as above; format: in vivo; conditions: application rate 1280 g/ha, scored visually after about 3 weeks, Table D7
Summary of the method: as §2

Amaranthus retroflexus [10] = test: as above; format: in vivo; conditions: application rate 1280 g/ha, scored visually after about 3 weeks, Table D6
Summary of the method: as §2

Poa annua [11] = test: as above; format: in vivo; conditions: application rate 1280 g/ha, scored visually after about 3 weeks, Table D3
Summary of the method: as §2

Stellaria media [12] = test: Herbicidal post-emergence action (Part 2), 1280 g/ha; format: in vivo; conditions: application rate 1280 g/ha, rated visually after about 3 weeks, Table C7
Summary of the method: (§3)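 Weeds sown in sandy loam, greenhouse-grown 2 to 3 weeks and sprayed at the one-leaf stage with WP or EC formulations as aqueous suspension or emulsion plus 0.5% additive at 600 liters per hectare water. Activity rated visually about 3 weeks later versus untreated controls (0% = like control, 100% = dead).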

Amaranthus retroflexus [13] = test: as above; format: in vivo; conditions: application rate 1280 g/ha, rated visually after about 3 weeks, Table C5
Summary of the method: as §3

Setaria viridis [14] = test: Herbicidal pre-emergence action (Part 2), 1280 g/ha; format: in vivo; conditions: application rate 1280 g/ha, scored visually after about 3 weeks, Table D4
Summary of the method: as §2

Echinochloa crus-galli [15] = test: as above; format: in vivo; conditions: application rate 1280 g/ha, scored visually after about 3 weeks, Table D1
Summary of the method: as §2

Abutilon theophrasti [16] = test: as above; format: in vivo; conditions: application rate 1280 g/ha, scored visually after about 3 weeks, Table D5
Summary of the method: as §2

Matricaria inodora [17] = test: Herbicidal post-emergence action (Part 2), 1280 g/ha; format: in vivo; conditions: application rate 1280 g/ha, rated visually after about 3 weeks, Table C6
Summary of the method: as §3

Abutilon theophrasti [18] = test: as above; format: in vivo; conditions: application rate 1280 g/ha, rated visually after about 3 weeks, Table C4
Summary of the method: as §3

Echinochloa crus-galli [19] = test: as above; format: in vivo; conditions: post-emergence (Part 2), application rate 1280 g/ha, rated visually after about 3 weeks vs untreated controls
Summary of the method: as §3

Poa annua [20] = test: as above; format: in vivo; conditions: application rate 1280 g/ha, rated visually after about 3 weeks, Table C2
Summary of the method: as §3

Amaranthus retroflexus [21] = test: Post-emergence herbicidal action, greenhouse, 320 g/ha; format: in vivo; conditions: application rate 320 g/ha, rated visually after about 3 weeks vs untreated controls
Protocol: (§4) Seeds of monocotyledonous and dicotyledonous weeds and crop plants were placed in sandy loam in plastic or wood-fiber pots, covered with soil and cultivated in a greenhouse under controlled growth conditions. 2 to 3 weeks after sowing, the test plants were treated at the one-leaf stage. The compounds of the invention, formulated in the form of wettable powders (WP) or as emulsion concentrates (EC), were then sprayed onto the green parts of the plants as aqueous suspension or emulsion with addition of 0.5% additive at a water application rate of […] (converted). After the test plants had been kept in the greenhouse under optimum growth conditions for about 3 weeks, the activity of the preparations was rated visually in comparison to untreated controls. For example, 100% activity=the plants have died, 0% activity=like control plants. Tables A1 to A14 below show the effects of selected compounds of the general formula (I) according to Tables 1.1 to 1.150 on various harmful plants and at an application rate corresponding to 320 g/ha, which were obtained by the experimental procedure mentioned above.

Abutilon theophrasti [22] = test: as above; format: in vivo; conditions: application rate 320 g/ha, rated visually after about 3 weeks vs untreated controls
Protocol: as §4

Pharbitis purpurea [23] = test: as above; format: in vivo; conditions: application rate 320 g/ha, rated visually after about 3 weeks vs untreated controls
Protocol: as §4

Setaria viridis [24] = test: as above; format: in vivo; conditions: application rate 320 g/ha, rated visually after about 3 weeks vs untreated controls
Protocol: as §4

Stellaria media [25] = test: as above; format: in vivo; conditions: application rate 320 g/ha, rated visually after about 3 weeks vs untreated controls
Protocol: as §4

Matricaria inodora [26] = test: as above; format: in vivo; conditions: application rate 320 g/ha, rated visually after about 3 weeks vs untreated controls
Protocol: as §4

Digitaria sanguinalis = test: as above; format: in vivo; conditions: application rate 320 g/ha, rated visually after about 3 weeks vs untreated controls
Protocol: as §4

Compound	Lolium rigidum (Lolium rigidum)	Stellaria media (Stellaria media [8])	Matricaria inodora (Matricaria inodora [9])	Amaranthus retroflexus (Amaranthus retroflexus [10])	Poa Annua (Poa annua [11])	Stellaria media (Stellaria media [12])	Amaranthus retroflexus (Amaranthus retroflexus [13])	Setaria viridis (Setaria viridis [14])	Echinochloa crus-galli (Echinochloa crus-galli [15])	Abutilon theophrasti (Abutilon theophrasti [16])	Matricaria inodora (Matricaria inodora [17])	Abutilon theophrasti (Abutilon theophrasti [18])	also measured
CN1CCC(O)N(c2cc(C(C)(C)C)on2)C1=O (stereo not drawn) [I.1-162, 3-(5-tert-Butyl-1,2-oxazol-3-yl)-4-hydroxy-1-methyltetrahydropyrimidin-2(1H)-one]													inhibition at 100 µM (photosystem II (PS II)): > 90%; Setaria viridis (efficacy in %) (Setaria viridis [1]): 90%; Hordeum murinum (efficacy in %) (Hordeum murinum): 90%; Viola tricolor (efficacy in %) (Viola tricolor): 90%; Stellaria media (efficacy in %) (Stellaria media [2]): 90%; Echinochloa crus-galli (efficacy in %) (Echinochloa crus-galli [3]): 80%; Avena fatua (efficacy in %) (Avena fatua): 90%; Matricaria inodora (efficacy in %) (Matricaria inodora [4]): 100%; Amaranthus retroflexus (efficacy in %) (Amaranthus retroflexus [5]): 100%; Polygonum convolvulus (efficacy in %) (Polygonum convolvulus): 90%; Abutilon theophrasti (efficacy in %) (Abutilon theophrasti [6]): 100%; Pharbitis purpurea (efficacy in %) (Pharbitis purpurea [7]): 80%; Alopecurus myosuroides (efficacy in %) (Alopecurus myosuroides): 90%
CC(=O)OC1CCN(C)C(=O)N1c1cc(C(F)(F)F)ccn1 (stereo not drawn) [I.2-449]	90%	100%	100%	100%	100%	100%	100%						
CC(C)C(=O)OC1CCN(C)C(=O)N1c1cc(C(C)(C)C)no1 (stereo not drawn) [I.5-290, 3-(3-tert-Butyl-1,2-oxazol-5-yl)-1-methyl-2-oxohexahydropyrimidin-4-yl 2-methylpropanoate]		100%	90%	100%	90%	100%	100%	90%	90%	100%	100%	100%	
CC(C)CC(=O)OC1CCN(C)C(=O)N1c1cc(C(C)(C)C)no1 (stereo not drawn) [I.7-290]		100%	100%	100%	90%		100%			100%		100%	Echinochloa crus-galli (Echinochloa crus-galli [19]): 100%
CC(=O)OC1N(c2cc(C(C)(C)C)on2)C(=O)N(C)CC1(C)C (stereo not drawn) [I.62-162]		100%	100%	100%	100%		100%	100%	90%	100%	100%	100%	Poa Annua (Poa annua [20]): 100%
CC(C)(C)c1cc(N2C(=O)N3CCCC3CC2O)no1 (stereo not drawn) [I.121-162]	90%	100%	100%	100%	100%			100%	100%	100%			Amaranthus retroflexus (efficacy in %) (Amaranthus retroflexus [21]): 100%; Abutilon theophrasti (efficacy in %) (Abutilon theophrasti [22]): 80%; Pharbitis purpurea (efficacy in %) (Pharbitis purpurea [23]): 80%
CCCC(=O)OC1CC2CCCN2C(=O)N1c1cc(C(C)(C)C)on1 (stereo not drawn) [I.126-162]	100%	100%	100%	100%	100%	100%	100%	100%	100%	100%	100%	100%	Echinochloa crus-galli (Echinochloa crus-galli [19]): 90%; Poa Annua (Poa annua [20]): 100%
CN1CC(F)(F)C(O)N(c2cc(C(C)(C)C)on2)C1=O (stereo not drawn) [I.141-162]													Setaria viridis (efficacy in %) (Setaria viridis [24]): 100%; Stellaria media (efficacy in %) (Stellaria media [25]): 100%; Matricaria inodora (efficacy in %) (Matricaria inodora [26]): 80%; Amaranthus retroflexus (efficacy in %) (Amaranthus retroflexus [21]): 90%; Digitaria sanguinalis (efficacy in %) (Digitaria sanguinalis): 100%; Abutilon theophrasti (efficacy in %) (Abutilon theophrasti [22]): 100%; Viola tricolor (efficacy in %) (Viola tricolor): 90%; Stellaria media (efficacy in %) (Stellaria media [2]): 100%; Avena fatua (efficacy in %) (Avena fatua): 80%; Amaranthus retroflexus (efficacy in %) (Amaranthus retroflexus [5]): 100%; Polygonum convolvulus (efficacy in %) (Polygonum convolvulus): 90%; Abutilon theophrasti (efficacy in %) (Abutilon theophrasti [6]): 90%
